Source: US6737438B2, “Substituted 1,2,4-trioxanes useful as antimalarial agents and a process for the preparation thereof” (Council of Scientific and Industrial Research, priority 2002, dated 2004)

Experiments:
[1] = system: multidrug resistant strain of Plasmodium yoelii Nigeriensis; test: Antimalarial activity against multidrug resistant P. yoelii in swiss mice; assay type: in vivo; conditions: 96 mg/kg; for Cured/treated: observed till day 28
[2] = i.m., 4 consecutive days (day 0-3), parasitaemia vs vehicle control
[3] = oral, 4 consecutive days (day 0-3), parasitaemia vs vehicle control

| Compound | melting point | % Suppression on Day 4 [1, 2] | Cured/treated ([1]; i.m.) | % Suppression on Day 4 [1, 3] | Cured/treated ([1]; oral) | inhibition in vivo at 96 mg/kg ([1]; Plasmodium yoelii, im, 96 h, i.m., 4 consecutive days (day 0-3), parasitaemia vs vehicle control, read-out: % Suppression on Day 4) | responders at 96 mg/kg ([1]; Plasmodium yoelii, im, 672 h, i.m., observed till day 28, read-out: Cured/treated (converted)) |
| --- | --- | --- | --- | --- | --- | --- | --- |
| C(=CC1COC(c2ccccc2)OO1)c1ccc(-c2ccccc2)cc1 (stereo not drawn) | 92 to 95 °C |  |  |  |  |  |  |
| Clc1ccc(-c2ccc(C=CC3COC4(CCCCC4)OO3)cc2)cc1 (stereo not drawn) | 96 to 98 °C |  |  |  |  |  |  |
| Clc1ccc(-c2ccc(C=CC3COC4(CCCC4)OO3)cc2)cc1 (stereo not drawn) | 102 to 104 °C |  |  |  |  |  |  |
| C=C(c1ccc(C2CCCCCC2)cc1)C1COC2(CCC(C(C)(C)CC)CC2)OO1 (stereo not drawn) [Trioxane 7cb] |  | 86.31% | 0/5 | 100% | 5/5 |  |  |
| C=C(c1ccc(C2CCCC2)cc1)C1COC2(CCC(C(C)(C)CC)CC2)OO1 (stereo not drawn) [Trioxane 7ae] |  | 43.58% | 0/5 | 100% | 0/5 |  |  |
| C=C(c1ccc(C2CCCCC2)cc1)C1COC2(CCC(C(C)(C)CC)CC2)OO1 (stereo not drawn) [Trioxane 7bi] |  | 53.01% | 0/5 | 100% | 5/5 |  |  |
| C(=CC1COC2(CCCCC2)OO1)c1ccc(C2CCCCCC2)cc1 (stereo not drawn) [Trioxane 7ca, 3-[(4′-cycloheptylphenyl)vinyl]-1,2,5-trioxaspiro-[5,5]-undecane] |  | 62.18% | 0/5 | 100% | 1/5 |  |  |
| C=C(c1ccc(C2CCCCCC2)cc1)C1COC2(CCC(c3ccccc3)CC2)OO1 (stereo not drawn) [Trioxane 7cd] |  | 58.17% | 0/5 | 100% | 2/5 |  |  |
| C=C(c1ccc(C2CCCCCC2)cc1)C1COC2(OO1)C1CC3CC(C1)CC2C3 (stereo not drawn) [Trioxane 9c] |  | 74.57% | 0/5 | 100% | 5/5 |  |  |
| C=C(c1ccc(-c2ccccc2)cc1)C1COC2(CCC(c3ccccc3)CC2)OO1 (stereo not drawn) [Trioxane 7ef] |  | 42.7% | 0/5 | 100% | 2/5 |  |  |
| C=C(c1ccc(C2CCCCC2)cc1)C1COC2(OO1)C1CC3CC(C1)CC2C3 (stereo not drawn) [Trioxane 9b] |  | 82.16% | 0/5 | 100% | 5/5 |  |  |
| C(=CC1COC2(CCCC2)OO1)c1ccc(C2CCCC2)cc1 (stereo not drawn) [Trioxane 7aa, 8-[(4′-Cyclopentylphenyl)vinyl]-6,7,10-trioxaspiro-[4,5]-decane] |  | 100% | 0/5 | 100% | 5/5 |  |  |
| C=C(c1ccc(-c2ccc(Br)cc2)cc1)C1COC2(CCC(c3ccccc3)CC2)OO1 (stereo not drawn) [Trioxane 7ff] |  | 46.1% | 0/5 | 100% | 2/5 |  |  |
| C(=CC1COC2(CCCCC2)OO1)c1ccc(C2CCCCCCC2)cc1 (stereo not drawn) [Trioxane 7db, 3-[(4′-cyclooctylphenyl)vinyl]-1,2,5-trioxaspiro-(5,5)-undecane] |  | 9.5% | 0/5 | 100% | 5/5 |  |  |
| C=C(c1ccc(-c2ccccc2)cc1)C1COC2(CCC(C(C)(C)CC)CC2)OO1 (stereo not drawn) [Trioxane 7eg] |  | 87.6% | 0/5 | 100% | 3/5 |  |  |
| CC1(C)OCC(C=Cc2ccc(-c3ccc(Br)cc3)cc2)OO1 (stereo not drawn) [Trioxane 7fa, 3,3-Dimethyl-6-[(4′-bromo-[1,1′-biphenyl]-4-yl)-vinyl]-1,2,4-trioxane] |  |  |  | died |  | 83.7% | 0% |
